For data set [1], the system named is concanavalin A-induced dry eye in rabbits. Kind of data set: Concanavalin A (Con A)-induced dry eye disease (DED) model in rabbits: TBUT, Schirmer test, tear osmolarity, tear lactoferrin. The format is in vivo, rabbit. As for the experimental part:
To assess the efficacy of PS on DED an improved concanavalin A model was used. In the concanavalin A model, dry eye is induced by injecting the lacrimal glands of a mammal with concanavalin A, a selective T cell mitogen that induces a lymphocytic infiltrate in these glands. The concanavalin A model is generally described in (Barabino S. Animal models of dry eye. Arch Soc Esp Oftalmol. 2005; 80(12):693-4). Concanavalin A was injected to the lacrimal glands under ultrasound guidance, thus eliminating injections to the vicinity of the gland (as opposed to the gland itself). The head and the tail of the major lacrimal gland of the rabbit were injected separately. The dose of concanavalin A was optimized for DED signs.
In the testing described below, four markers of DED are monitored: the tear break up time (TBUT), the Schirmer test, tear osmolarity, and tear lactoferrin levels. All assays were performed at the same clock time (±1 hr) to avoid assay variability on account of circadian variations.
In an efficacy experiment using the concanavalin A model, one group of rabbits was treated with compound 5, also known as phosphosulindac and abbreviated as PS, 1.5% eye drops and one group with vehicle. […] It is thus clear that PS applied topically suppresses DED.
Con A was injected under ultrasound guidance into all the lacrimal glands and the success of the injection was verified by a post-injection ultrasound image (see FIG. 1 and FIG. 2). […] This variation explains why the blind injections recommended in the original method are often unsuccessful. This was confirmed by mixing the Con A solution with methylene blue and tracking its course after injection. In about ⅓ of the cases, Con A ended up outside the gland.
Four parameters of efficacy were evaluated instead of the usual one or two. They include (a) the tear break up time (TBUT), determined using 0.2% fluorescein over the eye and recording the time taken to develop black dots, lines or obvious disruption of the fluorescein film; (b) tear osmolarity, measured using TearLab Osmolarity Test and following the manufacturer's instructions (TearLab Corp., San Diego, Calif.); (3) Schirmer tear test (STT), determined using Schirmer strips (EagleVision, Denville, N.J.) inserted between the cornea and the palpebral conjunctiva at the mid-point of the lower lid and measuring the length of moistened strip at 5 min; and (4) tear lactoferrin levels measured by ELISA kit (MyBiosource, San Diego, Calif.) following the instructions of the manufacturer. All four have been used in clinical practice and correlate with the clinical activity of the disease. The STT is the least reliable and, as result, it is clinically used less than half as frequently as TBUT.
The injections of Con A to the lacrimal glands were repeated weekly as needed. When longer than a 1-week periods of study are needed, repeat injections prolong dry eye for at least 3 weeks, making the originally acute model chronic.
PS Suppresses Con A—Induced Dry Eye in Rabbits. The effect of PS on dry eye was determined in New Zealand White (NZW) rabbits, 2-3 kg (Charles River Labs, Waltham, Mass.). These rabbits were housed singly in rooms with strict temperature (70±5° F.) and humidity (45±5%) control and acclimated for at least 2 weeks prior to induction of dry eye by injection of Con A as above. NZW rabbits with Con A-induced dry eye (three sets of injections) were treated with PS formulated as nanoparticles and administered topically as eye drops 3×/day for 21 days, starting on the day of Con A injection. […] Similar results were obtained on days 5 and 14 (data not shown).
Using this model, we compared the effect of PS to that of cyclosporine and lifitegrast. Rabbits were treated for 6 days with PS as above or cyclosporine 0.05% or lifitegrast 5% eye drops 3×/day. In addition to determining TUBT, osmolarity and STT, we measured the levels of IL-8 and IL-1β in the ILGs of the rabbits harvested at euthanasia. […]

The subject of data set [2] is eyes of rabbits. Kind of data set: Safety of topically applied PS in rabbits (toxicity, intraocular pressure, corneal melt, slit lamp). The format is in vivo, rabbit. From the text:
The Safety of Topically Applied PS.

Data set [3] has as its system MMPs. In words: General MMP activity in rabbit cornea (FRET peptide). The format is in vivo. As for the experimental part: The general activity of MMPs was determined in the corneas of three groups of rabbits. This MMP activity assay employs a fluorescence resonance energy transfer (FRET) peptide as a generic MMP indicator. Rabbits were treated with PS 1.6% or ketorolac 0.5% eye drops topically applied to their eyes or were not treated (naïve group). Results in relative fluorescence units (RFU)/mg protein (mean±SEM). Naïve=1,328±123; PS=749±218; Ketoroloac=1,272±106 (p<0.03 vs PS).
In an acute experiment, naïve rabbits were treated with either PS or ketorolac (both administered topically) for 1 h and determined the activity of MMP in the cornea. This assay determines the activity of MMPs collectively in a given tissue.

The test system of data set [4] is VEGF. Kind of data set: VEGF immunohistochemistry in inferior lacrimal gland of rabbits with DED. The format is in vivo, rabbit. The note with it: PS 3.5% eye drops three times per day, 1 week, vs vehicle. As for the experimental part:
Rabbits with ConA-induced dry eye disease (n=8 eyes/group) were treated with PS 3.5% eye drops three times per day or vehicle for 1 week. […] Immunohistochemistry for VEGF was performed on tissue sections and VEGF positive vessels were counted. PS reduced the number of VEGF positive cells by 73% bringing it to nearly normal values (the level in naïve rabbits)

[5] abbreviates: Baseline, PS 1.5% eye drops, Mean ± SEM.
[6] abbreviates: Con A DED rabbits, 6 days, eye drops 3×/day, PS nanoparticles, cyclosporine 0.05%, lifitegrast 5%, mean ± SEM.
[7] abbreviates: Day 13, PS 1.5% eye drops, Mean ± SEM.
The mark [8] stands for this setting: after 1 week of treatment, FIG. 5.
Where [9] appears, read: rabbits, 2 weeks of daily PS 3.6% eye drops.
Setting [10] is: weekly during a 1-month application of PS.

As for `CCOP(=O)(OCC)OCCCCOC(=O)CC1=C(C)/C(=C/c2ccc([S+](C)[O-])cc2)c2ccc(F)cc21` (stereo not drawn) [PS, phosphosulindac], in data set [1] (setting [5]), the Schirmer test was 14.6 ± 0.9 mm, the TBUT amounted to 52.3 ± 4.6 s and the Tear lactoferrin came out at 3.09 ± 0.4 ng/mg protein. Also, in data set [1] (setting [6]), the Osmolarity came to 294 ± 4.6 mOsm/L, the STT was found to be 12.3 ± 0.6 mm and the TBUT stood at 43.6 ± 4.0 s. In data set [1] (Day 11, PS 1.5% eye drops, Mean ± SEM), this molecule showed a Schirmer test of 9.5 ± 1.0 mm. In data set [1] (setting [7]), the TBUT worked out at 56.0 ± 4.0 s and the Tear lactoferrin was 3.19 ± 0.2 ng/mg protein. For the same molecule, the “TBUT, tear osmolarity and tear lactoferrin levels” value in data set [1] (PS nanoparticles eye drops 3×/day for 21 days, FIG. 4) is “restored to normal”. Further, the STT value entry in data set [1] (PS nanoparticles eye drops 3×/day for 21 days, difference from vehicle significant only for trend, FIG. 4) is given as “improved”. In data set [1] (setting [8]), the STT entry is recorded as “no significant effect”; the TBUT and osmolarity result is listed as “normalized”. Further, in data set [2] (1-month application of PS), the “Intraocular pressure (Tonopen)” value is on record as “remained normal” and the signs of uveitis result is recorded as “No animal developed signs of uveitis”. Besides, the “tolerability of ocular application” value in data set [2] (rabbits) is reported as “very well tolerated”. Also, the “keratitis or corneal melting (ophthalmological examination)” value in data set [2] (rabbits treated for up to 3 weeks) is given as “no evidence of keratitis or corneal melting”. Moreover, in data set [2] (setting [9]), the intraocular pressure entry is listed as “no changes in intraocular pressure” and the “topical or systemic toxicity” value was “no evidence of topical or systemic toxicity”. Besides, in data set [2] (setting [10]), the “slit lamp examination: conjunctiva” value was “no evidence of follicular/papillary response or injection of the conjunctiva” and the “slit lamp examination: corneal abnormalities (staining defects, vascularization, opacification, epithelial defects, stromal thinning, melts)” value is “nor were there signs of corneal abnormalities”. In addition, in data set [3] (naïve rabbits, topical, 1 h), the “suppression of the activity of MMPs in the cornea” value stood at 43%. Moreover, in data set [3] (rabbits, PS 1.6% or ketorolac 0.5% eye drops, mean±SEM), the “general activity of MMPs in the corneas” value is 749±218 RFU/mg protein. For the same molecule, in data set [4], the “reduction of the number of VEGF positive cells” value was 73%.
